Where only a bound is given, the exact number is not on record here.

As for `O=C(CNC(=O)c1nc2cccc(OC(F)(F)F)c2cc1OCc1ccccc1)OCc1ccccc1`, the melting point (usually the temperature, or range, at which the solid turns liquid) was in the range of 123 to 124 °C.

Take `CCOC(=O)c1ccc2occ(-c3ccc(SC)cc3)c2n1`: the melting point was in the range of 88 to 89 °C.

As for `COc1c(C)c(C(=O)c2ccc3[nH]c(=O)n(N)c(=O)c3c2)n2ccccc12`, the melting point worked out at 220 °C.

The molecule `CN1CCN(c2cccc3ccc(Nc4ncccc4N)cc23)CC1` yielded a melting point of 198 to 200 °C.

Turning to `NCC1=C(CCC(=O)O)CC=CC1`, the melting point was in the range of 228 to 229 °C.

The molecule `CCc1cccnc1NC(=O)OC(C)(C)C` showed a melting point of 101 to 102 °C.

As for `COc1ccc2c(c1)CN(C=O)N=C2Cc1c(Cl)cncc1Cl`, the melting point lay in the range of 165 to 167 °C.

`CCOC(=O)c1ccc2n1Cc1ccccc1N1CCN(C)CC21` (centres undefined): the melting point is 128 to 130 °C.

`CC#CCOc1ccc(S(=O)C(C(=O)NO)c2ccccc2OC)cc1` (centres undefined): the melting point worked out at 168 °C.

`CNC(=O)n1sc(Cc2ccccc2)nc1=O` yielded a melting point of 146 °C.

`COc1ccc(CNc2c(C)c(C)c3c(c2C)C(c2ccc(F)cc2)C(C)(C)O3)cc1` (centres undefined) came in with a melting point of 114 to 115 °C.

`Cc1cc(-c2ccccc2)nn1C(C)(C)C(=O)N(C)C` registered a melting point of 123 to 125 °C.

Molecule `O=C(O)c1nc2cc(O)c(O)cc2nc1C(=O)O` displayed a melting point above 300 °C.

As to `O=C(O)c1cn2c3c(cccc3c1=O)C1CCCCC12` (centres undefined), the melting point is 238 to 241 °C.

`C=CCOc1cc(C=O)ccc1O` yielded a melting point of 66 to 67 °C.

As for `CCCCCNC(=O)c1ccc(Cl)nn1`, the melting point was 98 to 101 °C.

`CCOC(=O)CC(=O)c1cc(F)c(F)c(F)c1F` had a melting point of 47 to 49 °C.

Regarding `N#CCCNC(=O)c1cccc(-c2cccc3cn(Cc4cccc(C(F)(F)F)c4)nc23)c1`, the melting point lay in the range of 174 to 175 °C.

The molecule `O=C(O)c1cccc(-c2ncn(-c3ccc(N4CCCC4=O)cc3)n2)c1` yielded a melting point of 270 to 273 °C.

The molecule `CS(=O)(=O)c1ccc2cc(C(=O)O)ccc2c1` gave a melting point of 301 to 304 °C.

With `COc1ccc(NC(=O)/C=C/c2cc(OC)c(OC)c(OC)c2)cc1N`, the melting point is 202 to 204 °C.

On to `CSc1ccc(-n2cnc3ccc(-c4nnc(C)o4)cc32)cc1`, for which the melting point fell in the range of 202 to 204 °C.

On to `Cc1nn(-c2ccc(C(F)(F)F)cn2)cc1CO`, for which the melting point was in the range of 157 to 158 °C.

Take `CNc1cc2c(cc1Cl)CCN(C)C[C@@H]2c1ccccc1`: the melting point lay within 98 to 100 °C.

`CCOC(=O)c1sc2ncccc2c1Br` displayed a melting point of 100 to 102 °C.

On to `O=C(NOC1CCCCO1)c1cnc(N2CCC(NS(=O)(=O)c3ccc4ccccc4c3)CC2)nc1` (centres undefined), for which the melting point was determined as 226 °C.

In the case of `CN(CCC(=O)O)c1ccccc1CNC(=O)C1Cc2ccccc2N1S(=O)(=O)c1ccc(-c2ccc(F)cc2Cl)cc1` (centres undefined), the melting point lay within 75 to 83 °C.

On to `CS(=O)(=O)c1ccc(C2=C(c3ccccc3)C(=O)OC23CCC3)cc1`, for which the melting point lay within 159 to 160 °C.

In turn, `CC(O)c1ccc(O)c(Cl)n1` (centres undefined) came in with a melting point of 89 to 92 °C.

For `CC1=C(C(=O)OCCCl)C(c2cccc([N+](=O)[O-])c2)C(C(=O)OCC(C)C)=C(C)N1` (centres undefined), the melting point was in the range of 150 to 153 °C.

Turning to `O=C(O)COc1ccc2c(c1)Nc1ccccc1S2`, the melting point was in the range of 180 to 181 °C.

`CC(O)(C1=CCNCC1)c1ccc(F)cc1` (centres undefined) came in with a melting point of 168 °C.

As for `COc1cc2c(cc1OC)C(c1ccc(Cl)cc1)=NN=C(C)C2`, the melting point is 188 to 198 °C.

`CC(=O)Nc1ccc(Nc2c(CC3CC4C=CC3C4)cc(C(=O)O)cc2S(=O)(=O)NC(C)=O)cc1` (centres undefined) returned a melting point of 270 °C.

The molecule `Cc1ccc(Sc2cc3c(cc2Sc2ccc(C)cc2)C(=O)c2c(c(O)c4cc(Sc5ccc(C)cc5)c(Sc5ccc(C)cc5)cc4c2O)C3=O)cc1` registered a melting point above 265 °C.

Take `CCOCCn1cc2c(C3C(=O)Nc4ccc(Cl)cc43)nc(NCc3ccncc3)nc2n1` (centres undefined): the melting point lay within 298 to 299 °C.

Turning to `CCOC(=O)C1=C(C)Nc2nc(N3CCOCC3)nc(N3CCOCC3)c2C1c1cccc2ccccc12` (centres undefined), the melting point came to 198 °C.

For the molecule `O=C(NCCc1ccccc1)Nc1ccc2ncc(Br)cc2n1`, the melting point fell in the range of 245 to 246 °C.

As for `CCS(=O)(=O)c1c(CS(=O)(=O)C2=NOC(C)(C)C2)c(C(F)(F)F)nn1-c1ccccc1`, the melting point was in the range of 158 to 160 °C.

In turn, `CC(C)(C)c1cc(C(=O)Nc2ccccc2NC(=O)N(Cc2ccccc2)Cc2ccccc2)cc(C(C)(C)C)c1O` yielded a melting point of 187 to 189 °C.

Molecule `Cc1cc(C)c(Nc2nc(C)ncc2S(=O)(=O)c2cccc(OCc3ccccc3)c2)c(C)c1` gave a melting point of 112 to 115 °C.

In the case of `CC(=O)Nc1c(-c2cccc(-n3c(N)nc4ccccc43)c2)cnn1C`, the melting point lay in the range of 135 to 137 °C.

`COc1cc(OC)c2cc(-c3ccc(F)cc3)oc2c1` displayed a melting point of 142 to 143 °C.

Molecule `O=C(O)CCc1ccccc1CNC(=O)C1Cc2ccccc2N1S(=O)(=O)c1ccc(-c2cccc(C(F)(F)F)c2)cc1` (centres undefined) displayed a melting point of 94 °C.

Turning to `O[C@@H]1c2ccccc2CN2CCC[C@@H]12` (relative stereo), the melting point lay in the range of 131 to 133 °C.

On to `CCCn1c(=O)c2[nH]c(N3CCOCC3)nc2n(CCC)c1=O`, for which the melting point lay in the range of 251 to 252 °C.

For the molecule `CC(=O)OC1CSC(Oc2cccnc2-c2ccccc2)C(OC(C)=O)C1OC(C)=O` (centres undefined), the melting point lay in the range of 69 to 101 °C.

The molecule `O=C(O)C(=NOCc1ccc(F)cc1)c1csc(NC(=O)C(F)(F)F)n1` came in with a melting point of 180 to 182 °C.

In turn, `CC(=O)c1cc(C(C)(C)C)cc(Br)c1O` gave a melting point of 98 to 98.5 °C.

In turn, `O=C(NC(=O)c1c(Cl)cccc1Cl)Nc1ccc(Br)cn1` showed a melting point of 228 to 230 °C.

As to `Clc1ccc2nc(Cl)nc(-c3ccccc3)c2c1`, the melting point lay within 159 to 160 °C.

As for `COC(=O)C(Cc1ccccc1)Oc1ccc2cc(-c3ccc(-c4ccccc4)[nH]3)ccc2c1` (centres undefined), the melting point fell in the range of 140 to 141 °C.

`C#Cc1cc(Nc2ncnc3cnc(NC(=O)CP(=O)(OCC)OCC)cc23)ccc1Cl` gave a melting point of 124 to 127 °C.

Take `CC(=O)Nc1cnc(C=NNC(N)=S)cc1C`: the melting point lay within 229 to 231 °C.

Regarding `ON=c1cc(-c2cnccn2)ss1`, the melting point turned out to be 262 °C.

On to `CC1(C)CC(O)CC(C)(C)N1C#N`, for which the melting point lay within 96 to 98 °C.

With `CC(C)C(C)OC(=S)c1ccc(N)cc1Cl` (centres undefined), the melting point lay within 43 to 46 °C.

Consider `CON(c1ccc([N+](=O)[O-])cc1[N+](=O)[O-])S(=O)(=O)c1ccccc1Cl`, for which the melting point was in the range of 112 to 114 °C.

For the molecule `COC(=O)c1ccc2c(c1)CCN2C(=O)OC(C)(C)C`, the melting point lay in the range of 107 to 108 °C.

With `COCc1c(C(=O)OC(C)C)ncc2[nH]c3cccc(-c4cccnc4)c3c12`, the melting point was in the range of 187 to 188 °C.

The molecule `CCCc1[nH]c(=O)[nH]c(=O)c1N1CCN(Cc2ccccc2)CC1` registered a melting point of 233 to 235 °C.

For the molecule `CC(=O)NC[C@H]1CN2C(=O)C[C@@H]2O1`, the melting point lay in the range of 82.5 to 84.5 °C.

Take `O=C(O)/C=C/C=C(c1ccccc1C(F)(F)F)c1ccccc1C(F)(F)F`: the melting point fell in the range of 162 to 164 °C.

Molecule `CCSCCCCCCCCCCC(=O)O` had a melting point of 58 to 61 °C.

`CC1(C)OC(=O)C(Oc2ccc(Cl)c(Cl)c2)=C1c1ccc(S(C)(=O)=O)cc1` registered a melting point of 144 to 145 °C.

Take `CC(C)(COc1ccc2ncc(Cl)n2n1)CS(N)(=O)=O`: the melting point was in the range of 197 to 200 °C.

With `Cc1nc([C@@H](Cc2c[nH]c3ccccc23)NC(=O)OC(C)(C)C)oc1C`, the melting point was 138 to 140 °C.

In the case of `NC(=O)CNC(=O)c1cccc(-c2cccc3cc(Cc4cccc(C(F)(F)F)c4)sc23)c1F`, the melting point lay in the range of 135 to 136 °C.

`COC(=O)CCN1C[C@H]2Cc3ccccc3[C@H](c3ccccc3)[C@H]2C1` (racemic) yielded a melting point of 75 to 76 °C.

With `CC(C)CCN1C(=O)C(N)C(=O)N(c2ccccc2F)c2ccccc21` (centres undefined), the melting point fell in the range of 125 to 160 °C.

Consider `N#Cc1ccc2c(c1)NC(=O)C2c1ncnc2c1cnn2C1CCCCC1` (centres undefined), for which the melting point was above 300 °C.

`O=S1(=O)N=CN(C2CC2)c2c(F)cc(F)c(F)c21` yielded a melting point of 166 to 168 °C.

Take `O=C(O)c1cn(Cc2ccccc2)c2cc(N3CCNCC3)c(F)cc2c1=O`: the melting point is 250 to 253 °C.

Turning to `O=C(O)C(O)c1cccs1` (centres undefined), the melting point came to 75 °C.

`CCOC(=O)C1=Cc2cc(C)c(O)cc2OC1C(F)(F)F` (centres undefined) gave a melting point of 151 to 153 °C.

As to `CN(C)CCCC#Cc1cnc(N)nc1`, the melting point was 126 to 127 °C.

With `Cc1ccc(-c2nc(CCCCCCOC(C)(C)C#N)c(C)o2)cc1`, the melting point was found to be 36 °C.

In turn, `O=C(O)C(Cl)=C(Cl)C(=O)c1ccccc1` showed a melting point of 228 °C.

As for `O=[N+]([O-])c1cc(F)cc2c1OCC2`, the melting point lay in the range of 113 to 114 °C.

Molecule `COC(=O)c1c(C)nc2cccc(C)c2c1NCc1ccc(Br)cc1` yielded a melting point of 150 °C.

As to `O=C(Oc1ccccc1)OC1CN(C(=O)Oc2ccccc2)CCC1c1ccccc1` (centres undefined), the melting point lay within 153 to 154 °C.

`COC(=O)c1ccc2c(nc(C)n2Cc2ccccc2)c1C1=NC(C)(C(C)C)C(=O)N1` (centres undefined) registered a melting point of 194 to 196 °C.

In turn, `O=c1ccn(CCO)c(C(O)c2ccccc2)c1O` (centres undefined) showed a melting point of 198 to 200 °C.

The molecule `CN1CC(C(=O)COC(=O)c2cccnc2)CC2c3cccc4[nH]cc(c34)CC21` (centres undefined) showed a melting point of 172 to 174 °C.

Regarding `O=C1C(=O)c2ccccc2C2=C1SCC1(CCN(C3CCCCC3)CC1)O2`, the melting point was in the range of 195 to 196 °C.

Turning to `O=C(O)c1ccccc1C(=O)Nc1ccc(C(=O)N2CCCC(O)c3cc(Cl)ccc32)cn1` (centres undefined), the melting point lay within 153 to 155 °C.

Turning to `CSCCCNc1cn(-c2cccnc2)nc1Cl`, the melting point is 80 to 81 °C.

Regarding `Cc1cc(C(=O)O)cc(C)c1OCCNC(=O)C1Cc2ccccc2N1S(=O)(=O)c1ccc(-c2ccc(F)cc2)cc1` (centres undefined), the melting point lay within 124 to 128 °C.

As for `Cc1ccc2nc(CN3CCN(c4ccc(Cl)cc4C#N)CC3)cn2c1`, the melting point is 135 to 136 °C.

(Values after a melting point compilation (Tetko et al.; mined from patent text by program, amines drawn as free bases though some values may be those of a salt).)
